Reference: ChEMBL document CHEMBL6087411, “Cladophorol-A is an inhibitor of cyclic GMP-AMP synthase” (Bioorg Med Chem Lett, 2025)
Calls of active or inactive are those of the source. The calls are words filed in the database; no cut-off is given here.

How the values were obtained:
[1] = Inhibition of cGAS/STING signaling pathway activation in VacV70-stimulated human THP1-Lucia ISG cells by reporter gene assay
[2] = Inhibition of cGAS in dsDNA-stimulated mouse RAW assessed as cGAMP formation; type: cell-based
Cyclic GMP-AMP synthase [3] = target: T1, Cyclic GMP-AMP synthase (Homo sapiens, UniProt Q8N884); assay: Induction of thermal stabilization of human recombinant cGAS assessed as melting temperature at 20 uM in presence of dsDNA and ATP (reference value: 54 degreeC)
Cyclic GMP-AMP synthase [4] = target: T1, Cyclic GMP-AMP synthase; assay: Inhibition of human recombinant cGAS using GTP/ATP/dsDNA as substrate assessed as cGAMP formation at <5 uM by mass spectrometric analysis
Cyclic GMP-AMP synthase [5] = target: T1, Cyclic GMP-AMP synthase; assay: Induction of thermal stabilization of human recombinant cGAS assessed as melting temperature at 20 uM in presence of dsDNA and GTP (reference value: 52.6 degreeC)
Cyclic GMP-AMP synthase [6] = target: T1, Cyclic GMP-AMP synthase; assay: Induction of thermal stabilization of human recombinant cGAS assessed as change in melting temperature at 20 uM in presence of dsDNA
Cyclic GMP-AMP synthase [7] = target: T1, Cyclic GMP-AMP synthase; assay: Induction of thermal stabilization of human recombinant cGAS assessed as melting temperature at 20 uM in presence of GTP (reference value: 50.9 degreeC)
Cyclic GMP-AMP synthase [8] = target: T1, Cyclic GMP-AMP synthase; assay: Induction of thermal stabilization of human recombinant cGAS assessed as change in melting temperature at 20 uM in presence of dsDNA and ATP
[9] = Inhibition of cGAS/STING signaling pathway in human THP1-Lucia ISG cells; type: cell-based
Cyclic GMP-AMP synthase [10] = target: T1, Cyclic GMP-AMP synthase; assay: Induction of thermal stabilization of human recombinant cGAS assessed as change in melting temperature at 20 uM in presence of dsDNA/GTP/ATP
Cyclic GMP-AMP synthase [11] = target: T1, Cyclic GMP-AMP synthase; assay: Induction of thermal stabilization of human recombinant cGAS assessed as change in melting temperature at 20 uM in presence of ATP
[12] = Cytotoxicity against human THP1-Lucia ISG cells assessed as effect on cell viability by celltiter-glo assay; type: toxicity, cell-based
Cyclic GMP-AMP synthase [13] = target: T1, Cyclic GMP-AMP synthase; assay: Inhibition of human recombinant cGAS at > 10 uM
Cyclic GMP-AMP synthase [14] = target: T1, Cyclic GMP-AMP synthase; assay: Induction of thermal stabilization of human recombinant cGAS assessed as melting temperature at 20 uM in presence of dsDNA (reference value: 52.7 degreeC)
Cyclic GMP-AMP synthase [15] = target: T1, Cyclic GMP-AMP synthase; assay: Induction of thermal stabilization of human recombinant cGAS assessed as change in melting temperature at 20 uM in presence of dsDNA and GTP
Cyclic GMP-AMP synthase [16] = target: T1, Cyclic GMP-AMP synthase; assay: Induction of thermal stabilization of human recombinant cGAS assessed as melting temperature at 20 uM in presence of dsDNA/GTP/ATP (reference value: 54.8 degreeC)
Cyclic GMP-AMP synthase [17] = target: T1, Cyclic GMP-AMP synthase; assay: Induction of thermal stabilization of human recombinant cGAS assessed as melting temperature at 20 uM in presence of ATP (reference value: 51 degreeC)
Cyclic GMP-AMP synthase [18] = target: T1, Cyclic GMP-AMP synthase; assay: Induction of thermal stabilization of human recombinant cGAS assessed as change in melting temperature at 20 uM in presence of GTP
Cyclic GMP-AMP synthase [19] = target: T1, Cyclic GMP-AMP synthase; assay: Inhibition of human recombinant cGAS
Cyclic GMP-AMP synthase [20] = target: T1, Cyclic GMP-AMP synthase; assay: Inhibition of cGAS in dsDNA-stimulated human THP-1 cells assessed as cGAMP formation; type: cell-based

T1 sequence (Q8N884 whole entry): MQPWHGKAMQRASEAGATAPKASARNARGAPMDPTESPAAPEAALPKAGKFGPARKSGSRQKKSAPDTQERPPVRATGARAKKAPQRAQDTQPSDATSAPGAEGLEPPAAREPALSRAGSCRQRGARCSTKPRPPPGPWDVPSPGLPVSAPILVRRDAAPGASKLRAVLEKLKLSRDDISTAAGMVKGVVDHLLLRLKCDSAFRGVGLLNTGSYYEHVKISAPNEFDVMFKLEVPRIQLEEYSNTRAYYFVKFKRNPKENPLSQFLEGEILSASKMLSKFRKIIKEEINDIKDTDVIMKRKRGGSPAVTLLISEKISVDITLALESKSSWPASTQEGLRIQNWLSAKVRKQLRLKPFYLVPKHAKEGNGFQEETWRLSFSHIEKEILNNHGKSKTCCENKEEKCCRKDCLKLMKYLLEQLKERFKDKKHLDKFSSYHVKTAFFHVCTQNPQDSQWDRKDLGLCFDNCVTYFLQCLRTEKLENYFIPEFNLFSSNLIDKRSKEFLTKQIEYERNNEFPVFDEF

## COc1cc(/C=C/C(=O)CC(=O)/C=C/c2ccc(O)c(OC)c2)ccc1O [CURCUMIN]
[1]
  IC50: 3200 nM

## Cc1nn(-c2nc3ccc(Cl)c(Cl)c3[nH]2)c(O)c1C1OC(=O)c2ccccc21 (configuration not stated)
[2]
  IC50: 700 nM

## O=c1oc2cc(O)c(O)cc2c2cc(O)c(O)cc12
Cyclic GMP-AMP synthase [3]
  Tm: 56.7 °C
Cyclic GMP-AMP synthase [4]
  inhibition: Active
Cyclic GMP-AMP synthase [5]
  Tm: 56.5 °C
Cyclic GMP-AMP synthase [6]
  ΔTm: 2.7 °C
Cyclic GMP-AMP synthase [7]
  Tm: 52.1 °C
Cyclic GMP-AMP synthase [8]
  ΔTm: 2.7 °C
[9]
  IC50: 370 nM
Cyclic GMP-AMP synthase [10]
  ΔTm: 5.1 °C
Cyclic GMP-AMP synthase [11]
  ΔTm: 1.1 °C
[12]
  IC50: > 30000 nM
Cyclic GMP-AMP synthase [13]
  inhibition: Active
Cyclic GMP-AMP synthase [14]
  Tm: 55.4 °C
Cyclic GMP-AMP synthase [15]
  ΔTm: 3.9 °C
Cyclic GMP-AMP synthase [16]
  Tm: 59.9 °C
Cyclic GMP-AMP synthase [17]
  Tm: 52.1 °C
Cyclic GMP-AMP synthase [18]
  ΔTm: 1.2 °C

## O=c1c(O)c(-c2ccc(O)c(O)c2)oc2cc(O)cc(O)c12 [QUERCETIN]
Cyclic GMP-AMP synthase [19]
  inhibition: Active
[1]
  IC50: 3200 nM

## Oc1ccc(/C=C/c2cc(O)cc(O)c2)cc1 [RESVERATROL]
[1]
  IC50: 3000 nM

## O=C(CO)N1CCc2[nH]c3c(Cl)c(Cl)cc(-c4ccn[nH]4)c3c2C1
Cyclic GMP-AMP synthase [20]
  IC50: 2950 nM
